Assay results as given in PubChem BioAssay AID2060329 (Molecular Pharmacology Branch, DTP, NCI, 2025).
pIC50: −log10 of the molar value.

Test system: MCF7 multi-cell spheroids with HUVEC/MSC, viability
Assay: Anticancer human tumor MCF7 cell line growth inhibition [IpAb];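 note: spheroids exposed to agents for seven days before readout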
Details: for pIC50: curve of first compound; for viability, T/C: stronger effect = lower value
Procedure, shortened: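 Combinations with ipatasertib or abemaciclib were tested on tumour spheroids holding HUVEC (25%) and MSC (15%) alongside 60% malignant cells. Top concentration was at or near clinical Cmax (10 microM if undefined), descending in half-log steps.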

## CC(C)(C)c1cnc(CSc2cnc(NC(=O)C3CCNCC3)s2)o1 + CCN1CCN(Cc2ccc(Nc3ncc(F)c(-c4cc(F)c5nc(C)n(C(C)C)c5c4)n3)nc2)CC1
Second compound 0.01 µM
  pIC50: 7.13
Second compound 0.0316 µM
  pIC50: 7.17
Second compound 0.1 µM
  pIC50: 7.19
Second compound 0.316 µM
  pIC50: 7.29
Second compound 1 µM
  pIC50: 7.76
Second compound 0.01 µM, first compound 0.00949 µM
  viability, T/C: 112%
Second compound 0.01 µM, first compound 0.03 µM
  viability, T/C: 93%
Second compound 0.01 µM, first compound 0.0949 µM
  viability, T/C: 38.9%
Second compound 0.01 µM, first compound 0.3 µM
  viability, T/C: 23.7%
Second compound 0.01 µM, first compound 0.949 µM
  viability, T/C: 27.4%
Second compound 0.01 µM, first compound 3 µM
  viability, T/C: 29.8%
Second compound 0.0316 µM, first compound 0.00949 µM
  viability, T/C: 102%
Second compound 0.0316 µM, first compound 0.03 µM
  viability, T/C: 97.8%
Second compound 0.0316 µM, first compound 0.0949 µM
  viability, T/C: 29.4%
Second compound 0.0316 µM, first compound 0.3 µM
  viability, T/C: 19.5%
Second compound 0.0316 µM, first compound 0.949 µM
  viability, T/C: 26.8%
Second compound 0.0316 µM, first compound 3 µM
  viability, T/C: 27.6%
Second compound 0.1 µM, first compound 0.00949 µM
  viability, T/C: 108%
Second compound 0.1 µM, first compound 0.03 µM
  viability, T/C: 99.7%
Second compound 0.1 µM, first compound 0.0949 µM
  viability, T/C: 25%
Second compound 0.1 µM, first compound 0.3 µM
  viability, T/C: 21.7%
Second compound 0.1 µM, first compound 0.949 µM
  viability, T/C: 26.9%
Second compound 0.1 µM, first compound 3 µM
  viability, T/C: 27.2%
Second compound 0.316 µM, first compound 0.00949 µM
  viability, T/C: 94.5%
Second compound 0.316 µM, first compound 0.03 µM
  viability, T/C: 72.3%
Second compound 0.316 µM, first compound 0.0949 µM
  viability, T/C: 21.3%
Second compound 0.316 µM, first compound 0.3 µM
  viability, T/C: 22.3%
Second compound 0.316 µM, first compound 0.949 µM
  viability, T/C: 27.1%
Second compound 0.316 µM, first compound 3 µM
  viability, T/C: 30.4%
Second compound 1 µM, first compound 0.00949 µM
  viability, T/C: 63%
Second compound 1 µM, first compound 0.03 µM
  viability, T/C: 37.8%
Second compound 1 µM, first compound 0.0949 µM
  viability, T/C: 19.6%
Second compound 1 µM, first compound 0.3 µM
  viability, T/C: 22.8%
Second compound 1 µM, first compound 0.949 µM
  viability, T/C: 27.5%
Second compound 1 µM, first compound 3 µM
  viability, T/C: 32%

## Cn1nccc1Nc1nccc(-c2ccn(C(CO)c3ccc(Cl)c(F)c3)c(=O)c2)n1 (stereo not given) + CCN1CCN(Cc2ccc(Nc3ncc(F)c(-c4cc(F)c5nc(C)n(C(C)C)c5c4)n3)nc2)CC1
Second compound 0.01 µM
  pIC50: < 5.00
Second compound 0.0316 µM
  pIC50: < 5.00
Second compound 0.1 µM
  pIC50: < 5.00
Second compound 0.316 µM
  pIC50: < 5.00
Second compound 1 µM
  pIC50: < 5.00
Second compound 0.01 µM, first compound 0.0316 µM
  viability, T/C: 107%
Second compound 0.01 µM, first compound 0.1 µM
  viability, T/C: 113%
Second compound 0.01 µM, first compound 0.316 µM
  viability, T/C: 115%
Second compound 0.01 µM, first compound 1 µM
  viability, T/C: 126%
Second compound 0.01 µM, first compound 3.16 µM
  viability, T/C: 143%
Second compound 0.01 µM, first compound 10 µM
  viability, T/C: 104%
Second compound 0.0316 µM, first compound 0.0316 µM
  viability, T/C: 105%
Second compound 0.0316 µM, first compound 0.1 µM
  viability, T/C: 116%
Second compound 0.0316 µM, first compound 0.316 µM
  viability, T/C: 128%
Second compound 0.0316 µM, first compound 1 µM
  viability, T/C: 136%
Second compound 0.0316 µM, first compound 3.16 µM
  viability, T/C: 138%
Second compound 0.0316 µM, first compound 10 µM
  viability, T/C: 62.1%
Second compound 0.1 µM, first compound 0.0316 µM
  viability, T/C: 116%
Second compound 0.1 µM, first compound 0.1 µM
  viability, T/C: 129%
Second compound 0.1 µM, first compound 0.316 µM
  viability, T/C: 139%
Second compound 0.1 µM, first compound 1 µM
  viability, T/C: 136%
Second compound 0.1 µM, first compound 3.16 µM
  viability, T/C: 139%
Second compound 0.1 µM, first compound 10 µM
  viability, T/C: 74.8%
Second compound 0.316 µM, first compound 0.0316 µM
  viability, T/C: 119%
Second compound 0.316 µM, first compound 0.1 µM
  viability, T/C: 115%
Second compound 0.316 µM, first compound 0.316 µM
  viability, T/C: 131%
Second compound 0.316 µM, first compound 1 µM
  viability, T/C: 143%
Second compound 0.316 µM, first compound 3.16 µM
  viability, T/C: 133%
Second compound 0.316 µM, first compound 10 µM
  viability, T/C: 95%
Second compound 1 µM, first compound 0.0316 µM
  viability, T/C: 126%
Second compound 1 µM, first compound 0.1 µM
  viability, T/C: 125%
Second compound 1 µM, first compound 0.316 µM
  viability, T/C: 123%
Second compound 1 µM, first compound 1 µM
  viability, T/C: 148%
Second compound 1 µM, first compound 3.16 µM
  viability, T/C: 145%
Second compound 1 µM, first compound 10 µM
  viability, T/C: 113%
